{"source": "patent US20120122776A1", "about": "“DPP-IV INHIBITORS FOR TREATMENT OF DIABETES IN PEDIATRIC PATIENTS” (BOEHRINGER INGELHEIM INTERNATIONAL GMBH, priority 2009, published 2012)", "key": {"[1]": {"experiment": "Safety and tolerability in people with type 2 diabetes"}, "[2]": {"experiment": "Pharmacokinetics of BI 1356, multiple oral doses once daily for 12 days in adult patients with type 2 diabetes", "conditions": "for fe0-24: fraction excreted in urine; for AUCT,ss / T1/2,ss / feT,ss / tmax,ss* / Cmax: steady state (Day 12); for tmax,ss*: median; for Cmax: read-out: Cmax,ss"}, "[3]": {"experiment": "Safety (adverse events, hypoglycaemia) in the 12-week add-on to metformin study", "type": "in vivo, human", "conditions": "12 weeks", "description": "In total, 106 patients (43.1%) experienced adverse events (AEs) with similar incidences across all treatments. Most frequently reported episodes were nasopharyngitis (7.5%), diarrhoea (3.3%), and nausea (3.0%). […] Ten patients (3.7%) experienced serious AEs but none of these events were considered drug-related.\nThe addition of BI 1356 to MET in patients with T2DM inadequately controlled on MET alone achieved clinically relevant and statistically significant reductions in HbA1c."}, "[4]": {"experiment": "Plasma concentration after single oral administration in the thorough QT study", "type": "in vivo, human", "conditions": "for maximum gMean concentration after single oral administration: healthy subjects", "experimental": "Forty-four subjects were enrolled, 26 (59.1%) of whom were male. The mean age was 36.4 years (range 22 to 48 years). The maximum gMean concentration after single oral administration was 7.05 nM (28.5% gCV) for 5 mg BI 1356, and 267 nM (66.6% gCV) for 100 mg BI 1356."}, "clinical": {"experiment": "clinical", "conditions": "human; for Cmax / Tmax / AUC(0-t): plasma; for CL renal: urine"}, "[5]": {"experiment": "2 h postprandial blood glucose excursions, multiple oral dose study in adult patients with type 2 diabetes", "type": "in vivo, human", "conditions": "already on Day 1; in doses 2.5 mg", "description": "[…]. […] […]."}, "[6]": {"experiment": "12-week randomized, double-blind add-on to metformin study in inadequately controlled adult type 2 diabetic patients: HbA1c and FPG", "conditions": "for placebo corrected mean reduction in HbA1c: 12 weeks", "protocol": "Effects were compared to add-on of placebo (PBO) or of open label glimepiride (GLIM; 1 to 3 mg qd) in a 12-week randomized, double-blind study.\nThe primary endpoint was change from baseline in HbA1c, adjusted for prior antidiabetic medication."}, "[7]": {"conditions": "gMean, 1 mg once daily oral for 12 days"}, "[8]": {"conditions": "gMean, 2.5 mg once daily oral for 12 days"}, "[9]": {"conditions": "gMean, 5 mg once daily oral for 12 days"}, "[10]": {"conditions": "gMean, 10 mg once daily oral for 12 days"}}}
{"smiles": "CC#CCn1c(N2CCC[C@@H](N)C2)nc2c1c(=O)n(Cc1nc(C)c3ccccc3n1)c(=O)n2C", "note": "[BI 1356]", "values": [{"measurement": "safety and tolerability", "setting": "[1]", "value": "placebo-like safety and tolerability"}, {"measurement": "mean accumulation ratio RA,AUC", "setting": "[2]; doses above 1 mg, once daily for 12 days", "value": "≤ 1.4"}, {"measurement": "AUC0-24", "setting": "[2]; [7]", "value": 0.0402, "unit": "µM·h"}, {"measurement": "Accumulation t1/2,", "setting": "[2]; [7]", "value": 23.9, "unit": "h"}, {"measurement": "Accumulation t1/2,", "setting": "[2]; [8]", "value": 12.5, "unit": "h"}, {"measurement": "Accumulation t1/2,", "setting": "[2]; [9]", "value": 11.4, "unit": "h"}, {"measurement": "Accumulation t1/2,", "setting": "[2]; [10]", "value": 8.59, "unit": "h"}, {"measurement": "fe0-24", "setting": "[2]; [8]", "value": 0.139, "unit": "%"}, {"measurement": "fe0-24", "setting": "[2]; [9]", "value": 0.453, "unit": "%"}, {"measurement": "fe0-24", "setting": "[2]; [10]", "value": 0.919, "unit": "%"}, {"measurement": "AUCT,ss", "setting": "[2]; gMean, 1 mg once daily oral", "value": 0.0817, "unit": "µM·h"}, {"measurement": "T1/2,ss", "setting": "[2]; gMean, 1 mg once daily oral", "value": 121, "unit": "h"}, {"measurement": "feT,ss", "setting": "[2]; gMean, 1 mg once daily oral", "value": 3.34, "unit": "%"}, {"measurement": "AUCT,ss", "setting": "[2]; gMean, 2.5 mg once daily oral", "value": 0.117, "unit": "µM·h"}, {"measurement": "T1/2,ss", "setting": "[2]; gMean, 2.5 mg once daily oral", "value": 113, "unit": "h"}, {"measurement": "feT,ss", "setting": "[2]; gMean, 2.5 mg once daily oral", "value": 3.06, "unit": "%"}, {"measurement": "AUCT,ss", "setting": "[2]; gMean, 5 mg once daily oral", "value": 0.158, "unit": "µM·h"}, {"measurement": "T1/2,ss", "setting": "[2]; gMean, 5 mg once daily oral", "value": 131, "unit": "h"}, {"measurement": "feT,ss", "setting": "[2]; gMean, 5 mg once daily oral", "value": 6.27, "unit": "%"}, {"measurement": "AUCT,ss", "setting": "[2]; gMean, 10 mg once daily oral", "value": 0.19, "unit": "µM·h"}, {"measurement": "T1/2,ss", "setting": "[2]; gMean, 10 mg once daily oral", "value": 130, "unit": "h"}, {"measurement": "feT,ss", "setting": "[2]; gMean, 10 mg once daily oral", "value": 3.22, "unit": "%"}, {"measurement": "tmax,ss*", "setting": "[2]; 1 mg once daily oral", "value": 1.48, "unit": "h"}, {"measurement": "tmax,ss*", "setting": "[2]; 2.5 mg once daily oral", "value": 1.42, "unit": "h"}, {"measurement": "tmax,ss*", "setting": "[2]; 5 mg once daily oral", "value": 1.53, "unit": "h"}, {"measurement": "tmax,ss*", "setting": "[2]; 10 mg once daily oral", "value": 1.34, "unit": "h"}, {"measurement": "Cmax", "setting": "[2]; gMean, 1 mg once daily oral", "value": 4.53, "unit": "nM"}, {"measurement": "Cmax", "setting": "[2]; gMean, 2.5 mg once daily oral", "value": 6.58, "unit": "nM"}, {"measurement": "Cmax", "setting": "[2]; gMean, 5 mg once daily oral", "value": 11.1, "unit": "nM"}, {"measurement": "Cmax", "setting": "[2]; gMean, 10 mg once daily oral", "value": 13.6, "unit": "nM"}, {"measurement": "excretion form and pathway", "setting": "in vivo", "value": "primarily excreted unchanged via the bile"}, {"measurement": "excretion via the kidney", "setting": "therapeutic oral dose levels", "value": "< 7 % of the administered oral dose"}, {"measurement": "main excretion organ", "setting": "therapeutic oral dose levels", "value": "mainly excreted via the liver"}, {"measurement": "drug-related hypoglycaemia", "setting": "[3]; add-on to metformin", "value": "did not occur"}, {"measurement": "incidence of AEs versus PBO", "setting": "[3]; add-on to metformin", "value": "comparable"}, {"measurement": "tolerability of combination treatment with MET", "setting": "[3]; BI 1356 1, 5, and 10 mg and MET", "value": "well tolerated"}, {"measurement": "maximum gMean concentration after single oral administration", "setting": "[4]; 5 mg single oral dose", "value": 7.05, "unit": "nM"}, {"measurement": "maximum gMean concentration after single oral administration", "setting": "[4]; 100 mg single oral dose", "value": 267, "unit": "nM"}, {"measurement": "maximum plasma concentration of supratherapeutic dose (100 mg) relative to therapeutic dose of 5 mg", "setting": "[4]; single dose", "value": "about 38 fold"}, {"measurement": "Cmax", "setting": "clinical; po, 1 mg", "value": 3.13, "unit": "nM"}, {"measurement": "Tmax", "setting": "clinical; po, 1 mg", "value": 1.5, "unit": "h"}, {"measurement": "AUC(0-t)", "setting": "clinical; po, 2.5 mg", "value": 0.0853, "unit": "µM·h"}, {"measurement": "Cmax", "setting": "clinical; po, 2.5 mg", "value": 5.25, "unit": "nM"}, {"measurement": "Tmax", "setting": "clinical; po, 2.5 mg", "value": 2, "unit": "h"}, {"measurement": "AUC(0-t)", "setting": "clinical; po, 5 mg", "value": 0.118, "unit": "µM·h"}, {"measurement": "Cmax", "setting": "clinical; po, 5 mg", "value": 8.32, "unit": "nM"}, {"measurement": "Tmax", "setting": "clinical; po, 5 mg", "value": 1.75, "unit": "h"}, {"measurement": "AUC(0-t)", "setting": "clinical; po, 10 mg", "value": 0.161, "unit": "µM·h"}, {"measurement": "Cmax", "setting": "clinical; po, 10 mg", "value": 9.69, "unit": "nM"}, {"measurement": "Tmax", "setting": "clinical; po, 10 mg", "value": 2, "unit": "h"}, {"measurement": "CL renal", "setting": "clinical; oral, 5 mg", "value": "~70", "unit": "mL/min"}, {"measurement": "CL renal", "setting": "clinical; po", "value": "14 to 70", "unit": "mL/min"}, {"measurement": "decrease in 2 h postprandial blood glucose excursions", "setting": "[5]", "value": "> 80", "unit": "%"}, {"measurement": "reduction in FPG from baseline to Week 12", "setting": "[6]; 1 mg qd add-on to metformin", "value": -19, "unit": "mg/dL"}, {"measurement": "placebo corrected mean reduction in HbA1c", "setting": "[6]; 1 mg qd add-on to metformin, n=65", "value": "−0.39", "unit": "%"}, {"measurement": "reduction in FPG from baseline to Week 12", "setting": "[6]; 5 mg qd add-on to metformin", "value": -35, "unit": "mg/dL"}, {"measurement": "placebo corrected mean reduction in HbA1c", "setting": "[6]; 5 mg qd add-on to metformin, n=66", "value": "−0.75", "unit": "%"}, {"measurement": "reduction in FPG from baseline to Week 12", "setting": "[6]; 10 mg qd add-on to metformin", "value": -30, "unit": "mg/dL"}, {"measurement": "placebo corrected mean reduction in HbA1c", "setting": "[6]; 10 mg qd add-on to metformin, n=66", "value": "−0.73", "unit": "%"}]}
{"smiles": "CCC1=C(C)CN(C(=O)NCCc2ccc(S(=O)(=O)NC(=O)N[C@H]3CC[C@H](C)CC3)cc2)C1=O", "note": "[GLIM, glimepiride, reference compound]", "values": [{"measurement": "drug-related hypoglycaemia", "setting": "[3]; add-on to metformin", "value": 3, "unit": "patients"}, {"measurement": "mean PBO corrected reduction in HbA1c at Week 12", "setting": "[6]; open label, 1 to 3 mg qd add-on to metformin, n=64", "value": "−0.90", "unit": "%"}]}
